Laboratory results as given in US9279806B2, “Water-soluble AIE luminogens for monitoring and retardation of fibrillation of amyloid proteins” (THE HONG KONG UNIVERSITY OF SCIENCE AND TECHNOLOGY, priority 2005, dated 2016).

How the values were obtained:
G-quadruplex of G1 = experiment: Isothermal titration calorimetry (ITC); assay type: binding, human
Method: It is clear that TTAPE is highly affinitive to K^+-containing G-quadruplex but not its Na^+ cousin. Isothermal titration calorimetry (ITC) measurements are performed, in an effort to understand the thermodynamic basis for the binding affinity difference. ITC is a sensitive technique for the studies of bimolecular processes and can provide direct information about binding affinities and associated thermodynamic parameters. A calorimetric titration experiment was performed at 25.00±0.01° C. on a MicroCal VP-ITC apparatus. G1 solutions for the ITC experiments were prepared in all-potassium (K-Tris: 5 mM Tris-HCl and 150 mM KCl) or all-sodium (Na-Tris: 5 mM Tris-HCl and 150 mM NaCl) buffer at pH 7.50, as required. The buffer solution of G1 was heated to 85° C. and cooled slowly to ensure the folding of the DNA into G-quadruplex structure. For a typical titration, a series of 10 μL aliquots of TTAPE solution were injected into the G1/M^+ solution at a 240 s interval. The heat for each injection was determined by the integration of the peak area in the thermogram with respect to time. Blank titration was conducted by injecting TTAPE into the sample cell containing only buffer under the same condition. The interaction heat was corrected by subtracting the blank heat from that for the TTAPE/G1 titration. The kb values were derived by fitting the isotherm curves with Origin 5.0 software.

[1] = tested on: G1 (ssDNA that mimics human telomeric sequence) / G-quadruplex; experiment: DNA probing and quadruplex recognition by FL/CD of TTAPE with G1; assay type: binding
Method: G1 is a 21-mer ssDNA that mimics human telomeric sequence. When the DNA is added into a solution of TTAPE in a Tris-HCl buffer, the solution starts to luminesce (FIG. 27A). Similar FL “lightup” phenomenon has been observed in the thiazole orange system. The I/I0 ratio of TTAPE at 470 nm increases rapidly in a narrow DNA concentration range and reaches its maximum at [G1]=5 μM (FIG. 27B). While conventional FL dyes suffer from self-quenching problems at high dye concentrations, the FL of TTAPE is continuously intensified with increasing its concentration (FIG. 28 and FIG. 27B), thanks to its unique AIE feature. In the aqueous buffer, the cationic dye spontaneously binds to the anionic DNA via electrostatic attraction, resulting in the formation of a TTAPE/G1 complex. Hydrophobic interaction between TTAPE and G1 may have also played a role in the binding process. These intermolecular forces lock conformations of the TTAPE molecules bound to the G1 strands. Consequently, the intramolecular rotations of TTAPE are restricted, which thus blocks its radiationless relaxation pathways and activates its FL process.
A complex of ssDNA and TTAPE was prepared by mixing 10 μL G 1 (0.1 mM) and 50 μL TTAPE (0.01 mM) in 5 mM Tris-HCl buffer in a 1.5 ml Eppendorf cup. The solution was incubated at 4° C. for 30 min. G-quadruplex formation was induced by adding 10 μl of a 1.0 M KCl solution into the Eppendorf cup. The final concentrations of TTAPE and G1 were kept at 4.5 and 9.0 μM, respectively. For other cationic species, the same amounts of corresponding salts were used. Kinetic experiment was conducted immediately after the injection of the cationic solution, while other spectral measurements were performed after an incubation period of 30 min.
DNA samples of G1, C1 and C2 were obtained from Operon in desalt purity and used without further purification. G1 was chosen as a model ssDNA mimicking the human telomeric repeat sequence d(T2AG3), which is capable of forming intramolecular G-quadruplex. Concentrations of the DNA strands were determined by measuring their absorptivity (E) values at 260 nm in a 100 μL quartz cuvette [ε(×10^5 M^−1 cm^−1): 2.14 (G1), 1.85 (C1), 1.85 (C2)]. Water was purified by a Millipore filtration system. Buffer solution was prepared by titrating 5 mM Tris with HCl until its pH value reached 7.50. All experiments were performed at room temperature unless otherwise specified.

[2] = tested on: ctDNA/RNA from torula yeast/BSA; experiment: Fluorescence increments / binding isotherm with ctDNA, RNA and BSA; details: dye 5 μM
Method: FIG. 8 illustrates increments of fluorescence of TPE-C2N^+ (8), N+C2-TPE-C2N^+ (9), TPE-C4N^+ (10), N+C4-TPE-C4N^+ (11) when binding with 10 μg/ml ctDNA/10 μg/ml RNA diethylaminoethanol (DEAE) salt from torula yeast/10 μg/ml RNA from torula yeast in buffer solution pH=7. Concentration of dyes: 5 μM; excitation wavelength: 350 nm. The four cationic TPE derivatives display larger FL enhancement in the presence of DNA than that of RNA.
FIG. 9 illustrates the binding isotherm of N+C2-TPE-C2N^+ (5 μM) to ctDNA/RNA from torula yeast/BSA (plot of the fluorescence intensity at 470 nm for ctDNA/RNA, and at 467 nm for BSA) in aqueous phosphate buffer (pH=7.0).

G1 = experiment: Time-dependent FL of G1 folding; assay type: biochemical, human
Method: Time-dependent FL was measured on a FluostarOptima multifunctional microplate reader (BMG Labtechnologies) with λex/λem set at 350/470 nm. To gain insight into dynamics of the folding process of G1, time-dependent FL measurements are performed. Solutions containing TTAPE and G1 are first incubated for 30 min to ensure complete dye/DNA complexation and transferred to a 96-well microtiter plate after incubation. Appropriate amounts of metal ions were added by an automatic injection mode. Kinetic measurements were performed at 20° C. and the FL data were recorded in every 4 s. The change in the emission intensity (1) of the solution after the addition of K^+ can be fitted by a second-order exponential curve: I=A1e^−t/τ1+A2e^−t/τ2+c Eq. (1) where t is the time, τ1 and r2 are the time constants of FL recovery, A^1 and A^2 are the respective amplitudes (the folding process is characterized by negative A values), and c is the FL intensity at t=infinity. Mean time constant (<τ>) was calculated according to eq. 2:
In one embodiment, a solution of potassium chloride is then injected at time t=0 (automatic injection mode) and the emission intensity at 470 nm is monitored. The emission drops abruptly to ˜30% of its original intensity at the beginning but starts to recover after ˜8 s and finally reaches a plateau at ˜320 s (FIG. 42). […]

[3] = entry 1: K+ added to TTAPE/G1 mixture, room temperature
[4] = entry 2: G1 added to TTAPE/K+ mixture
[5] = entry 3: TTAPE added to G1/K+ mixture

- Binding constant (G-quadruplex of G1; Na+ titration (Na-Tris)): too small to be determined accurately
- Variety of FL in presence of DNA and RNA compared with TPE-C2N+ and TPE-C4N+ ([2]; 10 μg/ml ctDNA or RNA): much larger variety of FL
Structure (SMILES): CC[N+](CC)(CC)CCOc1ccc(C(=C(c2ccc(OCC[N+](CC)(CC)CC)cc2)c2ccc(OCC[N+](CC)(CC)CC)cc2)c2ccc(OCC[N+](CC)(CC)CC)cc2)cc1.[Br-].[Br-].[Br-].[Br-] [TTAPE, 1,1,2,2-tetrakis[4-(2-triethylammonioethoxy)phenyl]ethene tetrabromide]
- Gibbs energy (ΔG°) (G-quadruplex of G1; G1/K+ buffer, 25 °C): -7.3 kcal/mol
- Red-shift of excitation and emission spectra on quadruplex formation ([1]; K+ added to TTAPE/G1): ~20 nm
- G1 concentration at which I/I0 at 470 nm reaches its maximum ([1]; TTAPE 4.5 μM in Tris-HCl buffer): 5 µM
- CD intensity (relative intensity at 295 nm) [1, 3]: 1.00
- FL intensity (relative intensity at 492 nm) [1, 3]: 1.00
- CD intensity (relative intensity at 295 nm) [1, 4]: 0.92
- FL intensity (relative intensity at 492 nm) [1, 4]: 0.82
- CD intensity (relative intensity at 295 nm) [1, 5]: 0.88
- FL intensity (relative intensity at 492 nm) [1, 5]: 0.70
- Relative affinity to DNA, RNA and proteins ([2]; aqueous phosphate buffer pH 7.0): larger affinity to DNA than to RNA and proteins
- Weighted mean time constant (<τ>) of FL recovery (G1; K+ 0.5 M injected into TTAPE/G1, 470 nm, 20 °C): 116 s
- Time at which recovered emission reaches a plateau (G1; K+ injected into TTAPE/G1, 470 nm): ~320 s
